Type in all cases: binding, mouse
The subject of assay [1] is monoclonal antibody HB-13 (IgG1, kappa; hybridoma ATCC HB-12167). The assay is described as follows: Competitive indirect ELISA (CI-ELISA), solid-phase antigen HB-SMPB-S-BSA. As to conditions: for cross-reactivity with the HB-13 antibody: competitor concentration of 50 ppm; for average IC50: free competitor in CI-ELISA. How it is done: The supernatant culture fluid from the cloned hybridomas may also be screened to select for those producing antibodies having a high affinity for hygromycin B. Affinity may be measured using a variety of well known techniques, such as ELISA, RIA or equilibrium dialysis using labelled hygromycin B. Competitive indirect ELISA (CI-ELISA) is preferred, and is conducted at a final antibody concentration (dilution from tissue culture supernatant) to give 50% of maximal binding to a hygromycin B coated substrate or assay well. In accordance with this embodiment, the antibody containing supernatant is added to a hygromycin B conjugate-coated solid substrate such as the wells of an assay plate, together with a range of concentrations of free hygromycin B as a competitor. Following incubation and washing, bound antibody in the wells is determined in the same manner as the indirect-ELISA. Percent inhibition may be calculated as (1-B/Bo)×100 where B is the optical density (OD) of a well with a competitor and Bo is the mean OD of the wells without competitor (control). […] However, for even greater accuracy, the affinity may be alternatively measured at 50% inhibition (IC50).
A competitive indirect ELISA (CI-ELISA) was used to determine the sensitivity and specificity of the monoclonal antibodies for binding hygromycin B. Microtiter plates were coated with HB-SMPB-S-BSA (400 ng/well) and blocked with 3% non-fat milk solution as described above. After washing five times with 0.05% Tween 20 in distilled water, 100 μL of hygromycin B standard in assay buffer (0.1M Tris, 0.15M NaCl, 0.05% Tween 20, 1% BSA, pH 7.5) and 100 μL antiserum (diluted 1:60 in assay buffer) were added to each well and incubated for 90 min at 37° C. Unbound antibody was removed by washing five times with the 0.05% Tween 20-water solution. Next, 50 μL of goat anti-mouse IgG-peroxidase conjugate (1:500 dilution) was added to each well. After a 60 min incubation at 37° C., the plates were washed ten times with 0.05% Tween 20, and bound antibody-peroxidase conjugate was determined using ABTS. Absorbance was read at 405 nm.
Each point represents the average of 6 replicates. […] The mean intraassay IC50 coefficient of variation (CV) was 7.8% (n=3), while a mean interassay IC50 coefficient of variation of 7.0% (n=3) was observed. […] HB-13 was also characterized as to its ability to recognize related aminoglycoside antibiotics, including spiramycin, gentamicin, kanamycin, amikacin and tylosin.
Background: An ELISA detects its analyte on a solid surface through an enzyme-linked reagent.

Assay [2] concerns monoclonal antibodies to hygromycin B obtained with the extended immunization protocol (including HB-3, HB-7, HB-13). The assay is described as follows: Competitive indirect ELISA (CI-ELISA). As to conditions: range over antibodies from extended immunization protocol. As for the experimental part:
(§1) The supernatant culture fluid from the cloned hybridomas may also be screened to select for those producing antibodies having a high affinity for hygromycin B. Affinity may be measured using a variety of well known techniques, such as ELISA, RIA or equilibrium dialysis using labelled hygromycin B. Competitive indirect ELISA (CI-ELISA) is preferred, and is conducted at a final antibody concentration (dilution from tissue culture supernatant) to give 50% of maximal binding to a hygromycin B coated substrate or assay well. […]
In the extended immunization schedule, female BALB/c mice were immunized with 75 μg ip injections every two weeks for a total of three injections. On day 35, the mice were bled so that serum titers and antibody specificities could be determined. […]
(§2) A competitive indirect ELISA (CI-ELISA) was used to determine the sensitivity and specificity of the monoclonal antibodies for binding hygromycin B. Microtiter plates were coated with HB-SMPB-S-BSA (400 ng/well) and blocked with 3% non-fat milk solution as described above. […] After a 60 min incubation at 37° C., the plates were washed ten times with 0.05% Tween 20, and bound antibody-peroxidase conjugate was determined using ABTS. Absorbance was read at 405 nm. […]

The test system of assay [3] is monoclonal antibodies to hygromycin B obtained with the short immunization protocol. The assay is described as follows: Competitive indirect ELISA (CI-ELISA). As to conditions: range over antibodies from short immunization protocol. How it is done:
as §1
In the short immunization schedule, female BALB/c mice (6-8 weeks of age) were injected intraperitoneally (ip) with 75 μg of HB-SMPB-S-OVA (in 0.2 mL physiological saline/RIBI adjuvant). […] One week after the second injection, the mice were bled and serum titers were determined. […]
as §2

In the case of `NCC[C@H](O)C(=O)N[C@@H]1C[C@H](N)[C@@H](O[C@H]2O[C@H](CN)[C@@H](O)[C@H](O)[C@H]2O)[C@H](O)[C@H]1O[C@H]1O[C@H](CO)[C@@H](O)[C@H](N)[C@H]1O` [amikacin], in assay [1], the “cross-reactivity with the HB-13 antibody” value was “None of these compounds were observed to cross-react”. For the molecule `CC[C@H]1OC(=O)C[C@@H](O)[C@H](C)[C@@H](O[C@@H]2O[C@H](C)[C@@H](O[C@H]3C[C@@](C)(O)[C@@H](O)[C@H](C)O3)[C@H](N(C)C)[C@H]2O)[C@@H](CC=O)C[C@@H](C)C(=O)/C=C/C(C)=C/[C@@H]1CO[C@@H]1O[C@H](C)[C@@H](O)[C@@H](OC)[C@H]1OC` [tylosin], the “cross-reactivity with the HB-13 antibody” value in assay [1] is reported as “None of these compounds were observed to cross-react”. As for gentamicin, the “cross-reactivity with the HB-13 antibody” value in assay [1] is recorded as “None of these compounds were observed to cross-react”. Still for that read-out and setting: the result for spiramycin reads “None of these compounds were observed to cross-react”. On to `CNC1CC(N)C(O)C(OC2OC(CO)C(O)C3OC4(OC(C(N)CO)C(O)C(O)C4O)OC23)C1O` (stereo not drawn) [hygromycin B], for which the values for the IC50 in assay [2] and in assay [3] were 0.7-1 ppm and 10-100 ppm, respectively. Also, the “average IC50” value in assay [1] (each point average of 6 replicates) worked out at 76.2 ng/well; in assay [1] (same value expressed as ppm), 0.762 ppm. Turning to `NC[C@H]1O[C@H](O[C@H]2[C@H](O)[C@@H](O[C@H]3O[C@H](CO)[C@@H](O)[C@H](N)[C@H]3O)[C@H](N)C[C@@H]2N)[C@H](O)[C@@H](O)[C@@H]1O` [kanamycin], the “cross-reactivity with the HB-13 antibody” value in assay [1] is recorded as “None of these compounds were observed to cross-react”.

(Values after patent US5620890A, “Monoclonal antibodies to hygromycin B and the method of making the same” (The United States of America as represented by the …, priority 1995, dated 1997).)
